Source: patent US20120295923A1, “Aminocyclohexanes and Aminotetrahydropyrans and Related Compounds As Gamma-Secretase Modulators” (PFIZER INC., priority 2010, published 2012)
Structures can show the parent of a compound that is named as a salt.

test system: γ-secretase; production of amyloid beta protein Aβ(1-42); assay: Cell-Based γ-Secretase Assay with ELISA Readout; details: human WT-APP overexpressing CHO cells; footnote 8: single determination; read-out: Aβ 42B IC50 (nM) (Geometric Mean of 2-8 Determinations)
Experimental: The ability of compounds to modulate production of amyloid beta protein A6(1-42) was determined using human WT-APP overexpressing CHO cells. Cells were plated at 22,000 cells/100 μL well in 96 well tissue culture treated, clear plates (Falcon) in DMEM/F12 based medium and incubated for 24 hours at 37° C. Compounds for testing were diluted in 100% DMSO to achieve an eleven points, half log, dose response for IC50 determinations. Compounds were added in fresh medium to achieve 1% final DMSO. Appropriate vehicle and inhibitor controls were added to obtain maximum and minimum inhibition values for the assay before the plates were incubated for about 24 hours at 37° C.
Coating of ELISA assay plates was initiated by addition of 50 μL/well of an in-house Aβ(1-42) specific antibody at (4 μg/mL) in 0.1 M NaHCO3 (pH 9.0) into black 384-well Maxisorp® plates (Nunc) and incubated overnight at 4° C. The capture antibody was then aspirated from the ELISA assay plates and 100 μL/well of Blocking Buffer (Dulbecco's PBS, 1.5% BSA (Sigma A7030)) added. Ambient temperature incubation was allowed to proceed for a minimum of two hours before washing 2×100 μL with Wash Buffer (Dulbecco's PBS, 0.05% Tween 20). Assay Buffer (Dulbecco's PBS, 1.0% BSA (Sigma A7030), 0.05% Tween 20) 20 μL/well was then added.
After incubation overnight at 37° C., 5% CO2, 40 μL (in duplicate) of experimental conditioned media were transferred into wells of the blocked ELISA plates containing the capture antibody, followed by overnight incubation at 4° C.
After overnight incubation of the ELISA assay plates at 4° C., unbound Aβ peptides were removed thorough (4×100 μL) washes with Wash Buffer. Europium (Eu) labeled (custom labeled, Perkin Elmer) Aβ(1-16) 6e10 Monoclonal Antibody (Covance #SIG-39320 was added, (50 μL/well Eu-6e10 @ 1:5000, 20 uM EDTA) in Assay Buffer. Incubation at ambient temperature for a minimum of 2 hours was followed by (4×100 μL) washes with Wash Buffer, before 50 μL/well of Delfia Enhancement Solution (PerkinElmer) was added. Following a one hour ambient temperature incubation, the plates were read on an EnVision plate reader (PerkinElmer) using standard DELFIA TRF settings. Data analysis including inhibitory IC50 determination was performed using nonlinear regression fit analysis (in-house software) and the appropriate plate mean values for the maximum and minimum inhibition controls.

SMILES	IC50
CC(C)CCN(CCC(F)(F)F)[C@@H]1CC[C@@H](CC(=O)O)C[C@H]1c1ccc(C(F)(F)F)cc1 (racemic) [Example 9, {(1R,3S,4R)/ (1S,3R,4S)-4-[(3-methylbutyl) (3,3,3-trifluoropropyl)amino]-3-[4-(trifluoromethyl)phenyl]cyclohexyl} acetic acid, hydrochloride salt]	618 nM
CC(C)CCN(CCC(F)(F)F)[C@@H]1CC[C@@H](CC(=O)O)C[C@H]1c1ccc(C(F)(F)F)nc1 [Example 12, {(1R,3S,4R)-4-[(3-methylbutyl) (3,3,3-trifluoro-propyl)amino]-3-[6-(trifluoromethyl)pyridin-3-yl]cyclohexyl}acetic acid]	1370 nM
O=C(O)C[C@@H]1CC[C@@H](N(Cc2cccc(F)c2)CC2CCCC2)[C@H](c2ccc(C(F)(F)F)cc2)C1 [Example 28, {(1R,3S,4R)-4-[(cyclopentyl-methyl)(3-fluorobenzyl)amino]-3-[4-(trifluoromethyl)phenyl]cyclohexyl} acetic acid, hydro-chloride salt]	230 nM
Cc1cc(Cl)ccc1[C@@H]1OC(CC(=O)O)CC[C@H]1N(CC1CCCC1)CC1CCCC1 (stereo in doubt) [Example 24, [(2R,5R,6S)-5-[bis(cyclopentyl-methyl)amino]-6-(4-chloro-2-methylphenyl)tetrahydro-2H-pyran-2-yl]acetic acid]	9190 nM
O=C(O)C[C@@H]1CC[C@@H](N2C[C@@H]3CC[C@@H](C3)C2)[C@H](c2ccc(C(F)(F)F)cc2)C1 [Example 25, {(1R,3S,4R)-4-[(1R,5S)-3-azabicyclo[3.2.1]oct-3-yl]-3-[4-(trifluoromethyl)phenyl]cyclohexyl} acetic acid]	8840 nM
O=C(O)C[C@@H]1CC[C@@H](N(CC2CCCC2)CC2CCCC2)[C@H](c2ccc(C(F)(F)F)nc2)O1 [Example 19, {(2S,5R,6S)-5-[bis(cyclopentyl-methyl)amino]-6-[6-(trifluoromethyl)pyridin-3-yl]tetrahydro-2H-pyran-2-yl}acetic acid]	837 nM
O=C(O)C[C@@H]1CC[C@@H](N2CC3(CCCC3)CC3(CCCC3)C2)[C@H](c2ccc(C(F)(F)F)cc2)C1 [Example 29, {(1R,3S,4R)-4-(13-azadispiro [4.1.4.3]tetradec-13-yl)-3-[4-(trifluoromethyl)phenyl]cyclohexyl} acetic acid]	193 nM

same assay, conditions: human WT-APP overexpressing CHO cells; geometric mean of 2-4 determinations unless otherwise indicated (footnote 10: 6-8; footnote 14: single determination); read-out: Aβ 42B IC50

SMILES	IC50
CCC(CC)CN(CC1CCCC1)[C@@H]1CC[C@@H](CC(=O)O)C[C@H]1c1ccc(C(F)(F)F)cc1 [Example 43, {(1R,3S,4R)-4-[(cyclopentylmethyl)(2-ethylbutyl)amino]-3-[4-(trifluoromethyl)phenyl]cyclohexyl}acetic acid, trifluoroacetate salt]	162 nM
CCc1csc(CN(CC2(F)CCCCC2)[C@@H]2CC[C@@H](CC(=O)O)C[C@H]2c2ccc(C(F)(F)F)cc2)n1 [Example 64, {(1R,3S,4R)-4-{[(4-ethyl-1,3-thiazol-2-yl)methyl][(1-fluorocyclohexyl)methyl]amino}-3-[4-(trifluoromethyl)phenyl]cyclohexyl}acetic acid, trifluoroacetate salt]	840 nM
CC(C)CN(CC1(F)CCCCC1)[C@@H]1CC[C@@H](CC(=O)O)C[C@H]1c1ccc(C(F)(F)F)cc1 [Example 52, {(1R,3S,4R)-4-{[(1-fluorocyclohexyl)methyl] (isobutyl)amino}-3-[4-(trifluoromethyl)phenyl]cyclohexyl}acetic acid, trifluoroacetate salt]	190 nM
O=C(O)C[C@@H]1CC[C@@H](N(CC2CCCC2)CC2(F)CCCCC2)[C@H](c2ccc(C(F)(F)F)cc2)C1 [Example 39, {(1R,3S,4R)-4-{(cyclopentylmethyl)[(1-fluorocyclohexyl)methyl]amino}-3-[4-(trifluoromethyl)phenyl]cyclohexyl}acetic acid, ammonium salt]	109 nM
Cc1cc(CN(CC(C)C)[C@@H]2CC[C@@H](CC(=O)O)C[C@H]2c2ccc(C(F)(F)F)cc2)oc1C [Example 67, {(1R,3S,4R)-4-{[(4,5-dimethyl-2-furyl)methyl](isobutyl)amino}-3-[4-(trifluoromethyl)phenyl]cyclohexyl}acetic acid, trifluoroacetate salt]	411 nM
O=C(O)C[C@@H]1CC[C@@H](N(CCC(F)(F)F)CC2CCCC2)[C@H](c2ccc(Cl)cc2)C1 [Example 48, {(1R,3S,4R)-3-(4-chlorophenyl)-4-[(cyclopentylmethyl)(3,3,3-trifluoropropyl)amino]cyclohexyl}acetic acid, trifluoroacetate salt]	441 nM
O=C(O)C[C@@H]1CC[C@@H](N(CC2CCCC2)CC2CCCC2)[C@H](c2ccc(Cl)cc2)O1 [Example 55, [(2S,5R,6S)-5-[bis(cyclopentylmethyl)amino]-6-(4-chlorophenyl)tetrahydro-2H-pyran-2-yl]acetic acid]	892 nM
COc1cccc(F)c1CN(CC1(F)CCCCC1)[C@@H]1CC[C@@H](CC(=O)O)C[C@H]1c1ccc(C(F)(F)F)cc1 [Example 58, {(1R,3S,4R)-4-{[(1-fluorocyclohexyl)methyl](2-fluoro-6-methoxybenzyl)amino}-3-[4-(trifluoromethyl)phenyl]cyclohexyl}acetic acid, trifluoroacetate salt]	309 nM
CC(C)CN(CC1=CCCCC1)[C@@H]1CC[C@@H](CC(=O)O)C[C@H]1c1ccc(C(F)(F)F)cc1 [Example 60, {(1R,3S,4R)-4-[(cyclohex-1-en-1-ylmethyl)(isobutyl)amino]-3-[4-(trifluoromethyl)phenyl]cyclohexyl}acetic acid, trifluoroacetate salt]	154 nM
O=C(O)C[C@@H]1CC[C@@H](N(Cc2cscn2)CC2CCCC2)[C@H](c2ccc(C(F)(F)F)cc2)C1 [Example 42, {(1R,3S,4R)-4-[(cyclopentylmethyl)(1,3-thiazol-4-ylmethyl)amino]-3-[4-(trifluoromethyl)phenyl]cyclohexyl}acetic acid, trifluoroacetate salt]	1970 nM
CCC(CC)CN(CC1CCCC1)[C@@H]1CC[C@@H](CC(=O)O)C[C@H]1c1ccc(Cl)cc1 [Example 49, {(1R,3S,4R)-3-(4-chlorophenyl)-4-[(cyclopentylmethyl)(2-ethylbutyl)amino]cyclohexyl} acetic acid, ammonium salt]	477 nM
CC(C)CN(Cc1ccc(C(C)(C)C)cc1)[C@@H]1CC[C@@H](CC(=O)O)C[C@H]1c1ccc(C(F)(F)F)cc1 [Example 66, {(1R,3S,4R)-4-[(4-tert-butylbenzyl)(isobutyl)amino]-3-[4-(trifluoromethyl)phenyl]cyclohexyl}acetic acid, trifluoroacetate salt]	268 nM
CC(C)(C)CN(CC1CCCC1)[C@@H]1CC[C@@H](CC(=O)O)C[C@H]1c1ccc(C(F)(F)F)cc1 [Example 36, {(1R,3S,4R)-4-[(cyclopentylmethyl)(2,2-dimethylpropyl)amino]-3-[4-(trifluoromethyl)phenyl]cyclohexyl}acetic acid, ammonium salt]	349 nM
CCOc1ccc(CN(CC(C)C)[C@@H]2CC[C@@H](CC(=O)O)C[C@H]2c2ccc(C(F)(F)F)cc2)cc1 [Example 57, {(1R,3S,4R)-4-[(4-ethoxybenzyl)(isobutyl)amino]-3-[4-(trifluoromethyl)phenyl]cyclohexyl}acetic acid, trifluoroacetate salt]	171 nM

same assay, conditions: human WT-APP overexpressing CHO cells; geometric mean of 2 determinations unless otherwise indicated (footnote 2: 6-14 determinations); read-out: Aβ 42B IC50

SMILES	IC50
CC(C)CN(CC1CCCC1)[C@@H]1CC[C@@H](CC(=O)O)O[C@H]1c1ccc(C(F)(F)F)cc1 [Example 4, {(2S,5R,6S)-5-[(cyclopentylmethyl)(isobutyl)amino]-6-[4-(trifluoromethyl)phenyl]tetrahydro-2H-pyran-2-yl}acetic acid]	608 nM
O=C(O)C[C@@H]1CC[C@@H](N(CC2CCCC2)CC2CCCC2)[C@H](c2ccc(C(F)(F)F)cc2)O1 [Example 3, {(2S,5R,6S)-5-[bis(cyclopentylmethyl)amino]-6-[4-(trifluoromethyl)phenyl]tetrahydro-2H-pyran-2-yl}acetic acid]	357 nM
O=C(O)C[C@@H]1CC[C@@H](N(CC2CCCC2)CC2CCCC2)[C@H](c2ccc(C(F)(F)F)cc2)C1 [Example 1, {(1R,3S,4R)-4-[bis(cyclopentylmethyl)amino]-3-[4-(trifluoromethyl)phenyl]cyclohexyl}acetic acid]	229 nM
